Assay results taken from the NIST ThermoML archive (doi:10.1021/je700152c).
Numbers after ± are expanded uncertainties.

Assay: molar heat capacity at saturation pressure

CCCCn1cc[n+](C)c1.Cc1ccc(S(=O)(=O)[O-])cc1 [1-butyl-3-methylimidazolium tosylate]
molar heat capacity [J/K/mol]
Conditions | Crystal 1 | Metastable crystal
205.31 K | – | 319.1 ± 3.4
205.46 K | 296.26 ± 3.1 | –
207.12 K | 298.09 ± 3.1 | –
207.15 K | 298.12 ± 3.1 | –
207.23 K | – | 320.66 ± 3.4
207.42 K | 298.43 ± 3.1 | –
209.08 K | 300.36 ± 3.1 | –
209.12 K | 300.45 ± 3.1 | –
209.16 K | – | 322.21 ± 3.4
209.38 K | 300.6 ± 3.1 | –
211.04 K | 302.62 ± 3.2 | –
211.08 K | – | 323.45 ± 3.4
211.09 K | 302.68 ± 3.2 | –
211.34 K | 302.99 ± 3.2 | –
213 K | 304.79 ± 3.2 | 325 ± 3.4
213.05 K | 304.92 ± 3.2 | –
213.31 K | 305.26 ± 3.2 | –
214.92 K | – | 326.24 ± 3.4
214.96 K | 307.15 ± 3.2 | –
215.01 K | 307.18 ± 3.2 | –
215.27 K | 307.65 ± 3.2 | –
216.84 K | – | 328.11 ± 3.4
216.91 K | 309.57 ± 3.2 | –
216.97 K | 309.61 ± 3.2 | –
217.22 K | 309.92 ± 3.2 | –
218.76 K | – | 329.66 ± 3.4
218.87 K | 311.96 ± 3.1 | –
218.93 K | 311.96 ± 3.1 | –
219.18 K | 312.59 ± 3.4 | –
220.68 K | – | 331.83 ± 3.4
220.82 K | 314.45 ± 3.4 | –
220.88 K | 314.45 ± 3.4 | –
221.13 K | 314.76 ± 3.4 | –
222.6 K | – | 333.69 ± 3.4
222.77 K | 317.86 ± 3.4 | –
222.83 K | 317.24 ± 3.4 | –
223.07 K | 317.55 ± 3.4 | –
224.51 K | – | 336.8 ± 3.4
224.72 K | 321.28 ± 3.4 | –
224.77 K | 321.9 ± 3.4 | –
225.01 K | 321.59 ± 3.4 | –
226.41 K | – | 340.21 ± 3.4
226.65 K | 326.86 ± 3.4 | –
226.7 K | 326.55 ± 3.4 | –
226.94 K | 328.11 ± 3.4 | –
228.3 K | – | 347.04 ± 3.7
228.56 K | 332.14 ± 3.4 | –
228.61 K | 331.83 ± 3.4 | –
228.85 K | 333.69 ± 3.4 | –
230.18 K | – | 352.94 ± 3.7
230.47 K | 336.18 ± 3.4 | –
230.52 K | 335.56 ± 3.4 | –
230.75 K | 336.8 ± 3.4 | –
232.06 K | – | 355.11 ± 3.7
232.37 K | 339.9 ± 3.4 | –
232.43 K | 338.97 ± 3.4 | –
232.65 K | 340.21 ± 3.4 | –
233.94 K | – | 356.97 ± 3.7
234.27 K | 341.76 ± 3.4 | –
234.33 K | 341.76 ± 3.4 | –
234.55 K | 342.7 ± 3.4 | –
235.82 K | – | 358.22 ± 3.7
236.17 K | 343.94 ± 3.7 | –
236.24 K | 343.01 ± 3.4 | –
236.45 K | 344.25 ± 3.7 | –
237.7 K | – | 359.46 ± 3.7
238.07 K | 346.11 ± 3.7 | –
238.14 K | 345.18 ± 3.7 | –
238.35 K | 346.42 ± 3.7 | –
239.58 K | – | 361.01 ± 3.7
239.97 K | 348.28 ± 3.7 | –
240.04 K | 347.35 ± 3.7 | –
240.25 K | 348.9 ± 3.7 | –
241.45 K | – | 362.87 ± 3.7
241.87 K | 350.46 ± 3.7 | –
241.94 K | 349.52 ± 3.7 | –
242.14 K | 350.77 ± 3.7 | –
243.33 K | – | 364.42 ± 3.7
243.76 K | 352.32 ± 3.7 | –
243.83 K | 351.7 ± 3.7 | –
244.04 K | 352.94 ± 3.7 | –
245.21 K | – | 365.98 ± 3.7
245.66 K | 354.49 ± 3.7 | –
245.73 K | 353.87 ± 3.7 | –
245.93 K | 355.11 ± 3.7 | –
247.08 K | – | 367.84 ± 3.7
247.55 K | 356.97 ± 3.7 | –
247.62 K | 356.04 ± 3.7 | –
247.82 K | 357.29 ± 3.7 | –
248.96 K | – | 369.39 ± 3.7
249.44 K | 359.15 ± 3.7 | –
249.51 K | 358.53 ± 3.7 | –
249.71 K | 359.46 ± 3.7 | –
250.83 K | – | 371.25 ± 3.7
251.33 K | 361.32 ± 3.7 | –
251.4 K | 360.39 ± 3.7 | –
251.59 K | 361.63 ± 3.7 | –
252.7 K | – | 372.81 ± 3.7
253.22 K | 363.49 ± 3.7 | –
253.29 K | 362.87 ± 3.7 | –
253.47 K | 363.8 ± 3.7 | –
254.58 K | – | 374.67 ± 3.7
255.11 K | 365.67 ± 3.7 | –
255.17 K | 364.74 ± 3.7 | –
255.35 K | 365.98 ± 3.7 | –
256.45 K | – | 376.53 ± 4
256.99 K | 367.84 ± 3.7 | –
257.06 K | 367.22 ± 3.7 | –
257.23 K | 368.15 ± 3.7 | –
258.32 K | – | 378.39 ± 4
258.88 K | 370.01 ± 3.7 | –
258.94 K | 369.08 ± 3.7 | –
259.11 K | 370.32 ± 3.7 | –
260.2 K | – | 380.26 ± 4
260.77 K | 372.19 ± 3.7 | –
260.82 K | 371.56 ± 3.7 | –
261 K | 372.5 ± 3.7 | –
262.07 K | – | 381.81 ± 4
262.65 K | 374.36 ± 3.7 | –
262.71 K | 373.43 ± 3.7 | –
262.87 K | 374.67 ± 3.7 | –
263.94 K | – | 383.36 ± 4
264.53 K | 376.22 ± 4 | –
264.59 K | 375.6 ± 3.7 | –
264.75 K | 376.53 ± 4 | –
265.82 K | – | 385.53 ± 4
266.42 K | 378.39 ± 4 | –
266.47 K | 377.46 ± 4 | –
266.63 K | 378.39 ± 4 | –
267.69 K | – | 387.4 ± 4
268.31 K | 380.57 ± 4 | –
268.36 K | 379.63 ± 4 | –
268.52 K | 380.88 ± 4 | –
269.56 K | – | 388.95 ± 4
270.19 K | 382.43 ± 4 | –
270.25 K | 381.81 ± 4 | –
270.4 K | 382.74 ± 4 | –
271.43 K | – | 391.12 ± 4
272.08 K | 384.6 ± 4 | –
272.14 K | 383.36 ± 4 | –
272.29 K | 384.6 ± 4 | –
273.3 K | – | 393.6 ± 4
273.97 K | 386.46 ± 4 | –
274.03 K | 385.53 ± 4 | –
274.19 K | 386.46 ± 4 | –
275.16 K | – | 396.09 ± 4
275.87 K | 388.64 ± 4 | –
275.92 K | 388.02 ± 4 | –
276.08 K | 388.33 ± 4 | –
277.01 K | – | 399.5 ± 4
277.76 K | 391.12 ± 4 | –
277.8 K | 390.5 ± 4 | –
277.97 K | 390.81 ± 4 | –
278.86 K | – | 403.54 ± 4
279.64 K | 393.6 ± 4 | –
279.67 K | 393.29 ± 4 | –
279.85 K | 393.6 ± 4 | –
280.7 K | – | 407.57 ± 4.3
281.51 K | 396.71 ± 4 | –
281.53 K | 397.02 ± 4 | –
281.71 K | 397.02 ± 4 | –
282.53 K | – | 410.68 ± 4.3
